Source: US10287301B2 (Achillion Pharmaceuticals, Inc., priority 2015, dated 2019)
Like-named read-outs stand apart in the source and are kept apart here.

Target: Human Factor D (Homo sapiens (Human), UniProt P00746)
Assay: Human Factor D Assay
Format: biochemical
Method in brief: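 Thioester cleavage assay: human Factor D (serum-derived, 80 nM final), substrate Z-L-Lys-SBzl with DTNB, both 100 μM final, after 5 min compound preincubation at room temperature.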

[1] = Table 3, Human Factor D 80 nM, substrate Z-L-Lys-SBzl, read-out: IC50 (Stars)

Human Factor D, sequence (P00746 26-253): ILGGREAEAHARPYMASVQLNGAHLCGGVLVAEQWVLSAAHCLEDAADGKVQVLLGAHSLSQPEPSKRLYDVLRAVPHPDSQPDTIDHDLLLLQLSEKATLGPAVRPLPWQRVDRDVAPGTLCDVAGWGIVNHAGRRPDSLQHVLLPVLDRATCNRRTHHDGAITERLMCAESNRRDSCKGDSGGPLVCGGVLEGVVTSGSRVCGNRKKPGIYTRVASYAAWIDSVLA

| SMILES | IC50 [1] [nM] | IC50 [nM] |
| --- | --- | --- |
| CC(=O)c1nn(CC(=O)N2C[C@H](F)C[C@H]2C(=O)Nc2cccc(Cl)c2)c2ccc(-c3cnc(C)nc3)cc12 [Compound 508, (2S,4R)-1-(2-(3-Acetyl-5-(2-methylpyrimidin-5-yl)-1H-indazol-1-yl)acetyl)-N-(3-chlorophenyl)-4-fluoropyrrolidine-2-carboxamide] | < 1000 |  |
| CC(=O)c1nn(CC(=O)N2C[C@H](F)C[C@H]2C(=O)Nc2ccc(F)c(Br)c2)c2ccc(-c3cnc(C)nc3)cc12 [Compound 509, (2S,4R)-1-(2-(3-Acetyl-5-(2-methylpyrimidin-5-yl)-1H-indazol-1-yl)acetyl)-N-(3-bromo-4-fluorophenyl)-4-fluoropyrrolidine-2-carboxamide] | < 1000 |  |
| CC(=O)c1nn(CC(=O)N2C[C@@](F)(CF)C[C@H]2C(=O)Nc2nc(Br)ccc2C)c2ccc(-c3cnc(C)nc3)cc12 [Compound 511, (2S,4R)-1-(2-(3-Acetyl-5-(2-methylpyrimidin-5-yl)-1H-indazol-1-yl)acetyl)-N-(6-bromo-3-methylpyridin-2-yl)-4-fluoro-4-(fluoromethyl)pyrrolidine-2-carboxamide] | < 1000 |  |
| CC(=O)N[C@H]1[C@@H](C(=O)Nc2cccc(Br)n2)N(C(=O)Cn2nc(C(C)=O)c3cc(-c4cnc(C)nc4)ccc32)C[C@@H]1F [Compound 512, (2S,3S,4S)-3-Acetamido-1-(2-(3-acetyl-5-(2-methylpyrimidin-5-yl)-1H-indazol-1-yl)acetyl)-N-(6-bromopyridin-2-yl)-4-fluoropyrrolidine-2-carboxamide] | < 1000 |  |
| CC(=O)N[C@@H]1CN(C(=O)Cn2nc(C(C)=O)c3cc(-c4cnc(C)nc4)ccc32)[C@H](C(=O)Nc2cccc(Br)n2)[C@H]1F [Compound 513, (2R,3S,4R)-4-Acetamido-1-(2-(3-acetyl-5-(2-methylpyrimidin-5-yl)-1H-indazol-1-yl)acetyl)-N-(6-bromopyridin-2-yl)-3-fluoropyrrolidine-2-carboxamide] | < 1000 |  |
| CC(=O)c1nn(CC(=O)N2C[Si](C)(C)C[C@H]2C(=O)Nc2cccc(Br)n2)c2ccc(-c3cnc(C)nc3)cc12 [Compound 514, (R)-1-(2-(3-acetyl-5-(2-Methylpyrimidin-5-yl)-1H-indazol-1-yl)acetyl)-N-(6-bromopyridin-2-yl)-3,3-dimethyl-1,3-azasilolidine-5-carboxamide] |  | 1000 to 10000 |
| Cc1cccc(NC(=O)[C@@H]2[C@H]3CC[C@H](C3)N2C(=O)Cn2cc(C(N)=O)c3cc(-c4ccc5c(c4)CCCC5)ccc32)n1 [Compound 515, 1-(2-((1R,3S,4S)-3-(6-Methylpyridin-2-ylcarbamoyl)-2-azabicyclo[2.2.1]heptan-2-yl)-2-oxoethyl)-5-(5,6,7,8-tetrahydronaphthalen-2-yl)-1H-indole-3-carboxamide] | > 10000 |  |
| CC(=O)c1nn(CC(=O)N2[C@@H]3C[C@@H]3C[C@H]2C(=O)NC/C(F)=C(\C)c2cccc(Cl)c2)c2ccc(-c3cnc(C)nc3)cc12 [Compound 516, (1R,3S,5R)-2-(2-(3-Acetyl-5-(2-methylpyrimidin-5-yl)-1H-indazol-1-yl)acetyl)-N—((Z)-3-(3-chlorophenyl)-2-fluorobut-2-en-1-yl)-2-azabicyclo[3.1.0]hexane-3-carboxamide] | < 1000 |  |
| CC(=O)c1nn(CC(=O)N2C[C@H](F)C[C@H]2C(=O)Nc2nc(Br)c(F)cc2C)c2ccc(-c3cnc(C)nc3)cc12 [Compound 520, (2S,4R)-1-(2-(3-Acetyl-5-(2-methylpyrimidin-5-yl)-1H-indazol-1-yl)acetyl)-N-(6-bromo-5-fluoro-3-methylpyridin-2-yl)-4-fluoropyrrolidine-2-carboxamide] | < 1000 |  |
| CC(=O)c1nn(CC(=O)N2C[C@H](F)C[C@H]2C(=O)Nc2cccc(Br)n2)c2ccc(-c3cnc(S(C)(=O)=O)nc3)cc12 [Compound 521, (2S,4R)-1-(2-(3-Acetyl-5-(2-(methylsulfonyl)pyrimidin-5-yl)-1H-indazol-1-yl)acetyl)-N-(6-bromopyridin-2-yl)-4-fluoropyrrolidine-2-carboxamide] | < 1000 |  |
| CC(=O)c1nn(CC(=O)N2C[C@H](F)C[C@H]2C(=O)Nc2cccc(Br)n2)c2ccc(-c3cnc(-n4cccn4)nc3)cc12 [Compound 522, (2S,4R)-1-(2-(5-(2-(1H-Pyrazol-1-yl)pyrimidin-5-yl)-3-acetyl-1H-indazol-1-yl)acetyl)-N-(6-bromopyridin-2-yl)-4-fluoropyrrolidine-2-carboxamide] | < 1000 |  |
| CC(=O)c1nn(CC(=O)N2[C@@H]3C[C@@H]3C[C@H]2C(=O)NC/C(F)=C(/C)c2ccccc2Cl)c2ccc(-c3cnc(C)nc3)cc12 [Compound 523] | < 1000 |  |
| CC(=O)c1nn(CC(=O)N2[C@@H]3C[C@@H]3C[C@H]2C(=O)NC/C(F)=C(\C)c2ccccc2Cl)c2ccc(-c3cnc(C)nc3)cc12 [Compound 528] | < 1000 |  |
| COC(=O)Cc1ncc(-c2ccc3c(c2)c(C(C)=O)nn3CC(=O)N2C[C@H](F)C[C@H]2C(=O)Nc2cccc(Br)n2)cn1 [Compound 529, methyl 2-(5-(3-acetyl-1-(2-((2S,4R)-2-((6-bromopyridin-2-yl)carbamoyl)-4-fluoropyrrolidin-1-yl)-2-oxoethyl)-1H-indazol-5-yl)pyrimidin-2-yl)acetate] | < 1000 |  |
| CC(=O)c1nn(CC(=O)N2[C@@H](C)CC[C@H]2C(=O)Nc2cccc(Br)n2)c2ccc(-c3cnc(C)nc3)cc12 [Compound 530, (2S,5S)-1-(2-(3-Acetyl-5-(2-methylpyrimidin-5-yl)-1H-indazol-1-yl)acetyl)-N-(6-bromopyridin-2-yl)-5-methylpyrrolidine-2-carboxamide] | < 1000 |  |
| CSc1ncc(-c2ccc3c(c2)c(C(C)=O)nn3CC(=O)N2C[C@H](F)C[C@H]2C(=O)Nc2cccc(Br)n2)cn1 [Compound 531, (2S,4R)-1-(2-(3-Acetyl-5-(2-(methylthio)pyrimidin-5-yl)-1H-indazol-1-yl)acetyl)-N-(6-bromopyridin-2-yl)-4-fluoropyrrolidine-2-carboxamide] | < 1000 |  |
| CC(=O)c1nn(CC(=O)N2C[C@H](F)C[C@H]2C(=O)Nc2cccc(Br)n2)c2ccc(-c3cnc(CC(N)=O)nc3)cc12 [Compound 532, (2S,4R)-1-(2-(3-Acetyl-5-(2-(2-amino-2-oxoethyl)pyrimidin-5-yl)-1H-indazol-1-yl)acetyl)-N-(6-bromopyridin-2-yl)-4-fluoropyrrolidine-2-carboxamide] | < 1000 |  |
| CC(=O)c1nn(CC(=O)N2C[C@H](F)C[C@H]2C(=O)Nc2cccc(Br)n2)c2ccc(-c3cnc(CC(=O)O)nc3)cc12 [Compound 533, 2-(5-(3-Acetyl-1-(2-((2S,4R)-2-((6-bromopyridin-2-yl)carbamoyl)-4-fluoropyrrolidin-1-yl)-2-oxoethyl)-1H-indazol-5-yl)pyrimidin-2-yl)acetic acid] | < 1000 |  |
| CCc1ccc(Br)nc1NC(=O)[C@@H]1C[C@@H](F)CN1C(=O)Cn1nc(C(C)=O)c2cc(-c3cnc(C)nc3)ccc21 [Compound 534, (2S,4R)-1-(2-(3-Acetyl-5-(2-methylpyrimidin-5-yl)-1H-indazol-1-yl)acetyl)-N-(6-bromo-3-ethylpyridin-2-yl)-4-fluoropyrrolidine-2-carboxamide] | < 1000 |  |
